The values below come from patent publication US20090263451A1, “Anti-Inflammatory and/or Analgesic Agents for Treatment of Myofascial Pain” (Warsaw Orthopedic, Inc., priority 2008, published 2009).

In experiment [1] the test system is Rat Chronic Constriction Injury Model. To be noted: 0.02 mg/kg/day subcutaneously; compared to unloaded polymer depots; FIG. 4.
Source text: (§1) A 2-month chronic constriction injury (CCI) model of neuropathic pain was used to evaluate different formulations of a clonidine, encapsulated in bioerodable polymers compared to clonidine given subcutaneously (SC).
(§2) The inventors evaluated the efficacy of a five Month Clonidine/Polymer Drug Depot in the Rat Chronic Constriction Injury Model. The animal model was the Bennett Model (Wistar rat). The purpose: To determine whether a five month polymer clonidine-eluting depot can improve pain associated behavioral responses in a rat model of neuropathic pain.
(§3) Experimental Design: Four loose chromic gut ligatures, 1 mm apart, were tied around the common sciatic nerve at mid-thigh. Each animal received treatment of test or control article-according to the dosing described in Table 5.
(§4) The inventors have conducted the present study for a period of 64 days and have employed the following two tests: (1) the Hargreaves test; and (2) the von Frey test. The Hargreaves Tests of Thermal Hyperalgesia were conducted on days 7, 14, 21, 28, 35, 42, 49, 56 and 63. The von Frey monofilament test of mechanical allodynia (performed the day following Thermal testing) were conducted on days-8, 15, 22, 29, 36, 43, 50, 57 and 64.
Experiment [2] shares this test system. The note with it: 0.02 mg/kg/day subcutaneously; vs. 45% for unloaded polymer depots; FIG. 3.
Source text: as §1, §2, §3, §4

Regarding `Clc1cccc(Cl)c1N=C1NCCN1` [clonidine, 2,6-dichloro-N-2-imidazolidinyldenebenzenamine], the “pain behavioral response (percentage of baseline), mechanical allodynia” value in experiment [1] is on record as “reduced the behavioral response”. In addition, the “pain behavioral response (percentage of baseline), thermal hyperalgesia” value in experiment [2] stood at 58%.
